Experiments:
[1] = molecular target: human dopamine D3 receptor (hD3R) (Homo sapiens, UniProt P35462); experiment: Human D3 receptor binding assay ([^3H]-7-OH-DPAT); conditions: CHO cells expressing hD3R, geometric mean of 2-5 determinations unless marked b (single determination), read-out: hD3 in CHO cells Ki
[2] = molecular target: human dopamine D2 receptor (hD2R) (Homo sapiens, UniProt P14416); experiment: Human D2 receptor binding assay ([^3H]-Spiperone); conditions: CHO cells expressing hD2R, geometric mean of 2-5 determinations unless marked b (single determination)
Chain of human dopamine D2 receptor (hD2R) (P14416 whole entry): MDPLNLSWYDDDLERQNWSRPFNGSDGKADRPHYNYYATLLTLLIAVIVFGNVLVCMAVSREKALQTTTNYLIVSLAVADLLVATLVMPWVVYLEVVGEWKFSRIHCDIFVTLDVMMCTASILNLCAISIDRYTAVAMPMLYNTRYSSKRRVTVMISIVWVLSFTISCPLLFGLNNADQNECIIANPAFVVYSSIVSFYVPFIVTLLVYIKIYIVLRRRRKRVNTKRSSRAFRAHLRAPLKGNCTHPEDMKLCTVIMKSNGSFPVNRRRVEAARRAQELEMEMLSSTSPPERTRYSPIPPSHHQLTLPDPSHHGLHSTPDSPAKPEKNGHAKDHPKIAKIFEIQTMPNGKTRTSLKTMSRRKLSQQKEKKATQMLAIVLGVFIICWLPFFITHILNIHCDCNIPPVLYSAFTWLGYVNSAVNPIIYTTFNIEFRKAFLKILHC

Chain of human dopamine D3 receptor (hD3R) (P35462 whole entry): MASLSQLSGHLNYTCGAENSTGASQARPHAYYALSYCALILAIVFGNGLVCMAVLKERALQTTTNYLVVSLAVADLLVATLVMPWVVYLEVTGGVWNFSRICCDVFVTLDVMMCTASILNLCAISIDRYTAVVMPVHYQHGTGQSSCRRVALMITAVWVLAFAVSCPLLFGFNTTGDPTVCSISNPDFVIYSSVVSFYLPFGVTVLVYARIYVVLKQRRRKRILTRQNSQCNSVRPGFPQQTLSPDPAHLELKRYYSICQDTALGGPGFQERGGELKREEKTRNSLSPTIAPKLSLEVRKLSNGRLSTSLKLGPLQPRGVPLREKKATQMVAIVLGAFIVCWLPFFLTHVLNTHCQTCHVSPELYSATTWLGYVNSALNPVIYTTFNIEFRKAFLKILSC

Structure (SMILES)	Ki [1] [nM]	Ki [2] [nM]
COc1nc2c(cc1NS(=O)(=O)c1ccc(OC3CCCC3)cc1)CCN(C)CC2 [Example 46, 4-(cyclopentyloxy)-N-(2-methoxy-7-methyl-6,7,8,9-tetrahydro-5H-pyrido[2,3-d]azepin-3-yl)benzenesulfonamide]	0.48	3.21
COc1nc2c(cc1NS(=O)(=O)c1ccc(C3(F)CCCCC3)nc1)CCN(C)CC2 [Example 19, 6-(1-fluorocyclohexyl)-N-(2-methoxy-7-methyl-6,7,8,9-tetrahydro-5H-pyrido[2,3-d]azepin-3-yl)pyridine-3-sulfonamide]	2.76	91.2
COc1nc2c(cc1NS(=O)(=O)c1ccc([C@H](C)OC)cc1)CCN(C)CC2 [Example 89, 4-[(1S)-1-methoxyethyl]-N-(2-methoxy-7-methyl-6,7,8,9-tetrahydro-5H-pyrido[2,3-d]azepin-3-yl)benzenesulfonamide]	1.67	76
COc1nc2c(cc1NS(=O)(=O)c1ccc([C@H]3CCCO3)cc1)CCN(C)CC2 [Example 99, N-(2-methoxy-7-methyl-6,7,8,9-tetrahydro-5H-pyrido[2,3-d]azepin-3-yl)-4-[(2R)-tetrahydrofuran-2-yl]benzenesulfonamide]	3.05	314
COc1nc2c(cc1NS(=O)(=O)c1cnc(OC3CCCC3)c(F)c1)CCN(C)CC2 [Example 130, 6-(cyclopentyloxy)-5-fluoro-N-(2-methoxy-7-methyl-6,7,8,9-tetrahydro-5H-pyrido[2,3-d]azepin-3-yl)pyridine-3-sulfonamide]	1.69	25.2
CCN1CCc2cc(NS(=O)(=O)c3ccc([C@H]4C[C@@H](OCCF)C4)cc3)c(OC)nc2CC1 [Example 119, N-(7-ethyl-2-methoxy-6,7,8,9-tetrahydro-5H-pyrido[2,3-d]azepin-3-yl)-4-[cis-3-(2-fluoroethoxy)cyclobutyl]benzenesulfonamide]	2.42	89.9
